Legend:
[1] = system: Cabbage Looper (Trichoplusia ni, TRIPNI); assay: Bioassay on Cabbage Looper (CL), 128-well diet tray assay; type: in vivo; settings: Trichoplusia ni; Species CL (Cabbage Looper); read-out: CL (Biological Results, rating)
Method: (§1) Certain molecules disclosed in this document were tested against BAW and CL using procedures described in the following examples. In the reporting of the results, the “BAW & CL Rating Table” was used (See Table Section).
Bioassays on CL were conducted using a 128-well diet tray assay. one to five second instar CL larvae were placed in each well (3 mL) of the diet tray that had been previously filled with 1 mL of artificial diet to which 50 μg/cm^2 of the test molecule (dissolved in 50 μL of 90:10 acetone-water mixture) had been applied (to each of eight wells) and then allowed to dry. Trays were covered with a clear self-adhesive cover, vented to allow gas exchange, and held at 25° C., 14:10 light-dark for five to seven days. Percent mortality was recorded for the larvae in each well; activity in the eight wells was then averaged. The results are indicated in the table entitled “Table ABC: Biological Results” (See Table Section).

[2] = system: Beet Armyworm (Spodoptera exigua, LAPHEG); assay: Bioassay on Beet Armyworm (BAW), 128-well diet tray assay; type: in vivo; settings: Species BAW (Beet Armyworm), read-out: BAW (Biological Results, rating)
Method: as §1
Bioassays on BAW were conducted using a 128-well diet tray assay. One to five second instar BAW larvae were placed in each well (3 mL) of the diet tray that had been previously filled with approximately 1.5 mL of artificial diet to which 50 μg/cm^2 of the test molecule (dissolved in 50 μL of 90:10 acetone-water mixture) had been applied (to each of eight wells) and then allowed to dry. Trays were covered with a clear self-adhesive cover, vented to allow gas exchange, and held at 25° C., 14:10 light-dark for five to seven days. Percent mortality was recorded for the larvae in each well; activity in the eight wells was then averaged. The results are indicated in the table entitled “Table ABC: Biological Results” (See Table Section).

Row | Structure (SMILES) | pest or weed control at 50 µg/cm2 [1] [%] | pest or weed control at 50 µg/cm2 [2] [%]
1 | CN(C(=O)c1cc(NC(=O)[C@H]2[C@H](c3cc(Cl)c(Cl)c(Cl)c3)C2(Cl)Cl)ccc1F)c1ccc(F)cc1 (relative stereo) [F60, trans-5-(2,2-dichloro-3-(3,4,5-trichlorophenyl)cyclopropane-1-carboxamido)-2-fluoro-N-(4-fluorophenyl)-N-methylbenzamide] | 50 to 100 | 50 to 100
2 | O=C(Nc1ccc(F)cc1)c1cc(NC(=O)[C@H]2[C@H](c3cc(Cl)c(Br)c(Cl)c3)C2(Cl)Cl)ccc1Cl (relative stereo) [F72, trans-5-(3-(4-Bromo-3,5-dichlorophenyl)-2,2-dichlorocyclopropane-1-carboxamido)-2-chloro-N-(4-fluorophenyl)benzamide] | 50 to 100 | 50 to 100
3 | O=C(Nc1ccc(F)cc1)c1cc(NC(=O)[C@H]2[C@H](c3cc(Cl)c(Cl)cc3Cl)C2(Cl)Cl)ccc1Cl (relative stereo) [F73, trans-2-Chloro-5-(2,2-dichloro-3-(2,4,5-trichlorophenyl)cyclopropane-1-carboxamido)-N-(4-fluorophenyl)benzamide] | 50 to 100 | 50 to 100
4 | O=C(Nc1ccccn1)c1cc(NC(=O)[C@H]2[C@H](c3cc(Cl)cc(Cl)c3)C2(Cl)Cl)ccc1Cl (relative stereo) [F78, trans-2-Chloro-5-(2,2-dichloro-3-(3,5-dichlorophenyl)cyclopropane-1-carboxamido)-N-(pyridin-2-yl)benzamide] | 50 to 100 | 50 to 100
5 | O=C(Nc1ccc(F)cc1)c1cc(NC(=O)[C@H]2[C@H](c3cc(C(F)(F)F)cc(C(F)(F)F)c3)C2(Cl)Cl)ccc1Cl (relative stereo) [F84, trans-5-(3-(3,5-Bis(trifluoromethyl)phenyl)-2,2-dichlorocyclopropane-1-carboxamido)-2-chloro-N-(4-fluorophenyl)benzamide] | 50 to 100 | 50 to 100
6 | O=C(Nc1c(F)cccc1F)c1cc(NC(=O)[C@H]2[C@H](c3cc(C(F)(F)F)cc(C(F)(F)F)c3)C2(Cl)Cl)ccc1Cl (relative stereo) [F86, trans-5-(3-(3,5-Bis(trifluoromethyl)phenyl)-2,2-dichlorocyclopropane-1-carboxamido)-2-chloro-N-(2,6-difluorophenyl)benzamide] | 50 to 100 | 50 to 100
7 | O=C(Nc1c(F)cccc1F)c1cc(NC(=O)[C@H]2[C@H](c3cc(Cl)cc(C(F)(F)F)c3)C2(Cl)Cl)ccc1Cl (relative stereo) [F89, trans-2-Chloro-5-(2,2-dichloro-3-(3-chloro-5-(trifluoromethyl)phenyl)cyclopropane-1-carboxamido)-N-(2,6-difluorophenyl)benzamide] | 50 to 100 | 50 to 100
8 | O=C(Nc1ccc(F)cc1)c1cc(NC(=O)[C@H]2[C@H](c3cc(Br)cc(Br)c3)C2(Cl)Cl)ccc1Cl (relative stereo) [F90, trans-2-Chloro-5-(2,2-dichloro-3-(3,5-dibromophenyl)cyclopropane-1-carboxamido)-N-(4-fluorophenyl)benzamide] | 50 to 100 | 50 to 100
9 | O=C(Nc1c(F)cccc1F)c1cc(NC(=O)[C@H]2[C@H](c3cc(Br)cc(Br)c3)C2(Cl)Cl)ccc1Cl (relative stereo) [F92, trans-2-Chloro-5-(2,2-dichloro-3-(3,5-dibromophenyl)cyclopropane-1-carboxamido)-N-(2,6-difluorophenyl)benzamide] | 50 to 100 | 50 to 100
10 | N#Cc1ccc(NC(=O)c2cc(NC(=O)[C@H]3[C@H](c4cc(Cl)cc(Cl)c4)C3(Cl)Cl)ccc2F)c(F)c1 (relative stereo) [F93, trans-N-(4-Cyano-2-fluorophenyl)-5-(2,2-dichloro-3-(3,5-dichlorophenyl)cyclopropane-1-carboxamido)-2-fluorobenzamide] | 50 to 100 | 50 to 100
11 | N#Cc1ccc(NC(=O)c2cc(NC(=O)[C@H]3[C@H](c4ccc(Cl)c(Cl)c4)C3(Cl)Cl)ccc2F)c(F)c1 (relative stereo) [F94, trans-N-(4-Cyano-2-fluorophenyl)-5-(2,2-dichloro-3-(3,4-dichlorophenyl)cyclopropane-1-carboxamido)-2-fluorobenzamide] | 50 to 100 | 50 to 100
12 | N#Cc1ccc(NC(=O)c2cc(NC(=O)[C@H]3[C@H](c4cc(Cl)c(Cl)c(Cl)c4)C3(Cl)Cl)ccc2F)c(F)c1 (relative stereo) [F95, trans-N-(4-Cyano-2-fluorophenyl)-5-(2,2-dichloro-3-(3,4,5-trichlorophenyl)cyclopropane-1-carboxamido)-2-fluorobenzamide] | 50 to 100 | 50 to 100
13 | CN(C(=O)c1cc(NC(=O)[C@H]2[C@H](c3cc(Cl)c(F)c(Cl)c3)C2(Cl)Cl)ccc1Cl)c1ccc(F)cc1 (relative stereo) [F97, trans-2-Chloro-5-(2,2-dichloro-3-(3,5-dichloro-4-fluorophenyl)cyclopropane-1-carboxamido)-N-(4-fluorophenyl)-N-methylbenzamide] | 50 to 100 | 50 to 100
14 | O=C(Nc1c(F)cccc1F)c1cc(NC(=O)[C@H]2[C@H](c3cc(Cl)c(F)c(Cl)c3)C2(Cl)Cl)ccc1Cl (relative stereo) [F98, trans-2-Chloro-5-(2,2-dichloro-3-(3,5-dichloro-4-fluorophenyl)cyclopropane-1-carboxamido)-N-(2,6-difluorophenyl)benzamide] | 50 to 100 | 50 to 100
15 | C=CCN(C(=O)c1cc(NC(=O)[C@H]2[C@H](c3cc(Cl)cc(Cl)c3)C2(Cl)Cl)ccc1Cl)c1ccc(F)cc1 (relative stereo) [F102, trans-N-Allyl-2-chloro-5-(2,2-dichloro-3-(3,5-dichlorophenyl)cyclopropane-1-carboxamido)-N-(4-fluorophenyl)benzamide] | 50 to 100 | 50 to 100
16 | N#Cc1ccc(NC(=O)c2cc(NC(=O)[C@H]3[C@H](c4ccc(Cl)c(Cl)c4)C3(Cl)Cl)ccc2Cl)c(F)c1 (relative stereo) [F103, trans-2-chloro-N-(4-cyano-2-fluorophenyl)-5-(2,2-dichloro-3-(3,4-dichlorophenyl)cyclopropane-1-carboxamido)benzamide] | 50 to 100 | 50 to 100
17 | N#Cc1ccc(NC(=O)c2cc(NC(=O)[C@H]3[C@H](c4cc(Cl)c(Cl)c(Cl)c4)C3(Cl)Cl)ccc2Cl)c(F)c1 (relative stereo) [F104, trans-2-Chloro-N-(4-cyano-2-fluorophenyl)-5-(2,2-dichloro-3-(3,4,5-trichlorophenyl)cyclopropane-1-carboxamido)benzamide] | 50 to 100 | 50 to 100
18 | CN(C(=O)c1cc(NC(=O)[C@H]2[C@H](c3cc(Cl)c(Cl)c(Cl)c3)C2(Cl)Cl)ccc1F)c1ccc(C#N)cc1F (relative stereo) [F105, trans-N-(4-Cyano-2-fluorophenyl)-5-(2,2-dichloro-3-(3,4,5-trichlorophenyl)cyclopropane-1-carboxamido)-2-fluoro-N-methylbenzamide] | 50 to 100 | 50 to 100
